Test results published in PubChem BioAssay AID330 (DTP/NCI, 2004).
Values joined by “and” are separate entries in the source; they are usually repeats but may differ in a detail not shown here. Equal entries are not always repeated. Inconclusive results and toxic doses are left out. How the source made its calls: active means survival T/C of 150% or more; inactive means T/C below 125% in these data.

System: P388 leukemia ip, CD2F1 mice, survival T/C
Assay: NCI In Vivo Anticancer Drug Screen. Data for tumor model P388 Leukemia (intraperitoneal) in CD2F1 (CDF1) mice
Conditions: endpoint: median survival time, higher = longer survival
In short: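 Mice carrying the transplanted tumor received test compound or vehicle. Survival was recorded in each group, and the value is the treated-group measurement divided by that of the vehicle-treated control group.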

[1] = dose: 50.0 mg/kg/injection, schedule: Q01DX009 (ip), vehicle: saline with Tween-80
[2] = dose: 100.0 mg/kg/injection, schedule: Q01DX009 (ip), vehicle: saline with Tween-80
[3] = dose: 50.0 mg/kg/injection, schedule: Q01DX005 (ip), vehicle: saline with Tween-80
[4] = dose: 200.0 mg/kg/injection, schedule: Q01DX009 (ip), vehicle: saline with Tween-80
[5] = dose: 100.0 mg/kg/injection, schedule: Q01DX005 (ip), vehicle: saline with Tween-80
[6] = dose: 200.0 mg/kg/injection, schedule: Q01DX005 (ip), vehicle: saline with Tween-80
[7] = dose: 50.0 mg/kg/injection, schedule: Q01DX009 (ip), vehicle: saline
[8] = dose: 100.0 mg/kg/injection, schedule: Q01DX009 (ip), vehicle: saline
[9] = dose: 50.0 mg/kg/injection, schedule: Q01DX005 (ip), vehicle: Klucel (hydroxypropylcellulose) (HPC)
[10] = dose: 100.0 mg/kg/injection, schedule: Q01DX005 (ip), vehicle: Klucel (hydroxypropylcellulose) (HPC)

Measured: T/C

CC12CCC3c4ccc(OP(=O)(N5CC5)N5CC5)cc4CCC3C1CCC2O (stereo not given)
inactive: dose: 12.5 mg/kg/injection, schedule: Q01DX009 (ip), vehicle: saline with Tween-80 96 % of control and 97 % of control | dose: 25.0 mg/kg/injection, schedule: Q01DX009 (ip), vehicle: saline with Tween-80 110 % of control and 96 % of control | [1] 100 % of control and 92 % of control | [2] 115 % of control

[O-][N+](O)=C1c2ccccc2-c2ccccc21
inactive: dose: 100.0 mg/kg/injection, schedule: Q04DX003 (ip), vehicle: saline 100 % of control | dose: 200.0 mg/kg/injection, schedule: Q04DX003 (ip), vehicle: saline 103 % of control | dose: 400.0 mg/kg/injection, schedule: Q04DX003 (ip), vehicle: saline 102 % of control

Cc1cc2c(cc1C)C(=O)C(N1CCOCC1)CCO2 (stereo not given)
inactive: dose: 100.0 mg/kg/injection, schedule: Q04DX003 (ip), vehicle: saline with Tween-80 99 % of control | dose: 200.0 mg/kg/injection, schedule: Q04DX003 (ip), vehicle: saline with Tween-80 99 % of control | dose: 400.0 mg/kg/injection, schedule: Q04DX003 (ip), vehicle: saline with Tween-80 96 % of control

c1ccc(CSc2nn[nH]n2)cc1
inactive: dose: 100.0 mg/kg/injection, schedule: Q04DX003 (ip), vehicle: Klucel (hydroxypropylcellulose) (HPC) 96 % of control | dose: 200.0 mg/kg/injection, schedule: Q04DX003 (ip), vehicle: Klucel (hydroxypropylcellulose) (HPC) 102 % of control | dose: 400.0 mg/kg/injection, schedule: Q04DX003 (ip), vehicle: Klucel (hydroxypropylcellulose) (HPC) 101 % of control

CC[N+](CC)=c1cc2oc3cc(N(C)C)ccc3nc-2cc1C
inactive: dose: 6.25 mg/kg/injection, schedule: Q01DX005 (ip), vehicle: saline with Tween-80 99 % of control and 107 % of control | dose: 6.25 mg/kg/injection, schedule: Q01DX005 (ip), vehicle: saline 107 % of control | dose: 12.5 mg/kg/injection, schedule: Q01DX005 (ip), vehicle: saline with Tween-80 106 % of control and 110 % of control | dose: 12.5 mg/kg/injection, schedule: Q01DX005 (ip), vehicle: saline 112 % of control | dose: 25.0 mg/kg/injection, schedule: Q01DX005 (ip), vehicle: saline with Tween-80 109 % of control and 115 % of control | dose: 25.0 mg/kg/injection, schedule: Q01DX005 (ip), vehicle: saline 122 % of control | [3] 109 % of control and 110 % of control and 112 % of control

O=c1c(Cl)c2cc3c(cc2c2ccccc12)nc1ccccc1n3C1CCCCC1
inactive: [1] 88 % of control | [2] 94 % of control | [4] 98 % of control

CN(C)CCC(=O)C(=Cc1c(Cl)cccc1Cl)C(=O)CCN(C)C
inactive: dose: 7.5 mg/kg/injection, schedule: Q01DX005 (ip), vehicle: saline 119 % of control and 120 % of control | dose: 15.0 mg/kg/injection, schedule: Q01DX005 (ip), vehicle: saline 120 % of control and 123 % of control

BrN=C1C=CC(=NBr)C=C1
inactive: [3] 100 % of control (2×) and 106 % of control | [5] 101 % of control and 106 % of control and 91 % of control | [6] 101 % of control and 106 % of control and 120 % of control | dose: 400.0 mg/kg/injection, schedule: Q01DX005 (ip), vehicle: saline with Tween-80 89 % of control and 90 % of control

C=C1SC(=Nc2c(C)cc(C)cc2C)N(C(=O)c2sc3ccccc3c2Cl)C12CCCCC2
inactive: dose: 50.0 mg/kg/injection, schedule: Q01DX009 (ip), vehicle: suspension in saline 96 % of control | dose: 100.0 mg/kg/injection, schedule: Q01DX009 (ip), vehicle: suspension in saline 103 % of control | dose: 200.0 mg/kg/injection, schedule: Q01DX009 (ip), vehicle: suspension in saline 91 % of control

COC(=O)C(Cc1c[nH]c2ccccc12)NC(=O)C(NC(=O)OC(C)(C)C)C(C)C (stereo not given)
inactive: dose: 50.0 mg/kg/injection, schedule: Q01DX009 (ip), vehicle: Klucel (hydroxypropylcellulose) (HPC) 101 % of control | dose: 100.0 mg/kg/injection, schedule: Q01DX009 (ip), vehicle: Klucel (hydroxypropylcellulose) (HPC) 99 % of control | dose: 200.0 mg/kg/injection, schedule: Q01DX009 (ip), vehicle: Klucel (hydroxypropylcellulose) (HPC) 97 % of control | dose: 400.0 mg/kg/injection, schedule: Q01DX009 (ip), vehicle: Klucel (hydroxypropylcellulose) (HPC) 90 % of control

CCOC(=O)C(C(=O)OCC)C1CCS(=O)(=O)C1 (stereo not given)
inactive: [2] 109 % of control | [4] 104 % of control | dose: 400.0 mg/kg/injection, schedule: Q01DX009 (ip), vehicle: saline with Tween-80 104 % of control

CC(O)CNC1c2ccccc2CC1O (stereo not given)
inactive: dose: 25.0 mg/kg/injection, schedule: Q01DX009 (ip), vehicle: saline 108 % of control | [7] 100 % of control | [8] 100 % of control

BrC1=CC(Br)=C2N=C(C(Br)(Br)Br)N=C3N=C(C(Br)(Br)Br)N=C1N32
inactive: dose: 15.0 mg/kg/injection, schedule: Q01DX005 (ip), vehicle: Klucel + Tween-80 106 % of control | dose: 30.0 mg/kg/injection, schedule: Q01DX005 (ip), vehicle: Klucel + Tween-80 109 % of control | dose: 60.0 mg/kg/injection, schedule: Q01DX005 (ip), vehicle: Klucel + Tween-80 103 % of control and 110 % of control

c1ccc(Nc2nnc(-c3ccc4c(c3)OCO4)o2)cc1
inactive: [9] 91 % of control | [10] 92 % of control | dose: 200.0 mg/kg/injection, schedule: Q01DX005 (ip), vehicle: Klucel (hydroxypropylcellulose) (HPC) 100 % of control

O=C1CSC(c2c(F)cccc2Cl)N1c1nncs1 (stereo not given)
inactive: dose: 60.0 mg/kg/injection, schedule: Q01DX005 (ip), vehicle: Klucel (hydroxypropylcellulose) (HPC) 102 % of control and 104 % of control | dose: 120.0 mg/kg/injection, schedule: Q01DX005 (ip), vehicle: Klucel (hydroxypropylcellulose) (HPC) 105 % of control

O=C(/C=C/c1ccccc1O)c1ccccc1
inactive: [1] 97 % of control | [2] 102 % of control | [4] 108 % of control

CCO/C([O-])=C(\C=N\[n+]1ccccc1C)c1ccccc1
inactive: [7] 109 % of control | [8] 110 % of control | dose: 200.0 mg/kg/injection, schedule: Q01DX009 (ip), vehicle: saline 109 % of control

CCCCOC(C(=O)OCCN(CC)CC)(c1ccccc1)c1ccccc1
inactive: [9] 108 % of control | [10] 100 % of control

c1ccc([P+](CCN2Cc3ccccc3C2)(c2ccccc2)c2ccccc2)cc1
inactive: dose: 0.78 mg/kg/injection, schedule: Q01DX009 (ip), vehicle: other 119 % of control | dose: 0.78 mg/kg/injection, schedule: Q01DX009 (ip), vehicle: saline 101 % of control | dose: 1.56 mg/kg/injection, schedule: Q01DX009 (ip), vehicle: other 110 % of control | dose: 1.56 mg/kg/injection, schedule: Q01DX009 (ip), vehicle: saline 101 % of control | dose: 3.12 mg/kg/injection, schedule: Q01DX009 (ip), vehicle: saline 107 % of control | dose: 3.13 mg/kg/injection, schedule: Q01DX009 (ip), vehicle: other 114 % of control | dose: 3.13 mg/kg/injection, schedule: Q01DX009 (ip), vehicle: saline 105 % of control | dose: 6.25 mg/kg/injection, schedule: Q01DX009 (ip), vehicle: other 118 % of control | dose: 6.25 mg/kg/injection, schedule: Q01DX009 (ip), vehicle: saline 109 % of control and 119 % of control | dose: 12.5 mg/kg/injection, schedule: Q01DX009 (ip), vehicle: other 108 % of control | dose: 12.5 mg/kg/injection, schedule: Q01DX009 (ip), vehicle: saline 120 % of control and 122 % of control | dose: 25.0 mg/kg/injection, schedule: Q01DX009 (ip), vehicle: other 88 % of control

O=C1Cc2ccccc2C(=O)N1NCCO
inactive: dose: 100.0 mg/kg/injection, schedule: Q01DX001 (ip), vehicle: saline with Tween-80 103 % of control | dose: 200.0 mg/kg/injection, schedule: Q01DX001 (ip), vehicle: saline with Tween-80 102 % of control | dose: 400.0 mg/kg/injection, schedule: Q01DX001 (ip), vehicle: saline with Tween-80 94 % of control

Cn1c2c(c3nc(N)nc(N)c3c1=O)CCc1ccccc1-2
inactive: dose: 25.0 mg/kg/injection, schedule: Q01DX005 (ip), vehicle: distilled water + alcohol 102 % of control | dose: 50.0 mg/kg/injection, schedule: Q01DX005 (ip), vehicle: distilled water + alcohol 96 % of control | dose: 100.0 mg/kg/injection, schedule: Q01DX005 (ip), vehicle: distilled water + alcohol 94 % of control | dose: 200.0 mg/kg/injection, schedule: Q01DX005 (ip), vehicle: distilled water + alcohol 103 % of control

COC1C(COC(=O)c2ccccc2)OC(OC(C)=O)C1OC(C)=O (stereo not given)
inactive: [3] 94 % of control | [5] 96 % of control | [6] 100 % of control
